Source: patent EP0434360A1, “New benziodiazepine analogs” (MERCK & CO. INC., priority 1989, dated 1991)
Like-named read-outs stand apart in the source and are kept apart here.

What was measured:
[1] = target: T1, gastrin receptor (gastric glands) (Cavia porcellus, UniProt H0VZC5); assay: Gastrin Receptor Binding in Guinea Pig Gastric Glands
T1 construct: The washed guinea pig gastric glands prepared as above were resuspended in 25 ml of standard buffer; from tissue; host or cells: isolated guinea pig gastric mucosal glands (collagenase-dispersed)
T1 sequence (H0VZC5 1-426): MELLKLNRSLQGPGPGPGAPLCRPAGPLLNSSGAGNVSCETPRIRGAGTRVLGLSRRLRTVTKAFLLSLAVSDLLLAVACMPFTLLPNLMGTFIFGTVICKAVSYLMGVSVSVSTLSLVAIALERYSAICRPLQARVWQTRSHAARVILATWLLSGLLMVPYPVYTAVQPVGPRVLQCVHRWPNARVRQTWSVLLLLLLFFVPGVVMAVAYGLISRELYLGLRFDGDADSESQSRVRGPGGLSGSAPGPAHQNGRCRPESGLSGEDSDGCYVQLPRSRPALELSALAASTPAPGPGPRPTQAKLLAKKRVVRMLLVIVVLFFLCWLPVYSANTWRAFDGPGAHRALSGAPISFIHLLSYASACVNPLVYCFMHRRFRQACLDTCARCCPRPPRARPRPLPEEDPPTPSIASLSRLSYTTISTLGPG

CCK receptor (pancreas) = target: T2, CCK receptor (pancreas) (Rattus norvegicus, UniProt P30551); assay: CCK Receptor Binding (Pancreas), inhibition of 125I-CCK-33 binding
T2 construct: The whole pancreas was dissected free of fat tissue and was homogenized; from tissue; host or cells: rat whole pancreas membrane homogenate
T2 sequence (P30551 1-444): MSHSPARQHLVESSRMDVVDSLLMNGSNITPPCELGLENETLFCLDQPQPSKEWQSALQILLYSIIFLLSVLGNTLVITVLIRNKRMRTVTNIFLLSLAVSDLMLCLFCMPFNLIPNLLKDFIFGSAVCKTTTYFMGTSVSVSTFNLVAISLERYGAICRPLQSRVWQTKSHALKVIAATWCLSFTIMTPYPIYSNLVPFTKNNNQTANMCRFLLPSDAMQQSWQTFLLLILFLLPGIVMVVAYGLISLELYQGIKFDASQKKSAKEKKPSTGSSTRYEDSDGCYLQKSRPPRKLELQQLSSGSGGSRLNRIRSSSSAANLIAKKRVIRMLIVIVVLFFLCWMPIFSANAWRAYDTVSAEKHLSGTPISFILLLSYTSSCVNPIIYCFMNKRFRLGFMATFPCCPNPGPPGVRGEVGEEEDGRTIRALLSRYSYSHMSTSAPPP
Protocol: 1. CCK Receptor Binding (Pancreas)
CCK-33 was radiolabeled with ^1251-Bolton Hunter reagent (2000 Cilmmole) as described by Sankara et al. (J. Biol. Chem. 254: 9349-9351, 1979). Receptor binding was performed according to Innis and Snyder (Proc. Natl. Acad. Sci. 77 6917-6921, 1980) with the minor modification of adding the additional protease inhibitors, phenyl-methane sulfonyl fluoride and o-phenanthroline.
Male Sprague-Dawley rats (200-350 g) were sacrificed by decapitation. The whole pancreas was dissected free of fat tissue and was homogenized in 20 volumes of ice-cold 50 mM, Tris HCI (pH 7.7 at 25°C) with a Brink- mann Polytron PT 10. The homogenates were centrifuged at 48,000 g for 10 min. Pellets were resuspended in Tris Buffer, centrifuged as above and resuspended in 200 volumes of binding assay buffer (50 mM Tris HCI, pH 7.7 at 25°C, 5 mM dithiothrietol, 0.1 mM bacitracin, 1.2 mM phenyl-methane sulfonyl fluoride and 0.5 mM o-phenanthroline). […] All assays were run in duplicate or triplicate. The reaction mixtures were incubated at 37°C for30 minutes and centrifuged in a Beckman Microfuge (4 minutes) immediately after adding 1 ml of ice-cold incubation buffer. The supernatant was aspirated and discarded, pellets were counted with a Beckman gamma 5000. For Scatchard analysis (Ann. N.Y. Acad. Sci. 51 : 660, 1949), ^125I-CCK-33 was progressively diluted with increasing concentrations of CCK-33.

[2] = target: T3, CCK receptor (brain, cerebral cortex) (Cavia porcellus, UniProt H0VZC5); assay: CCK Receptor Binding (Brain), inhibition of 125I-CCK-33 binding; set-up: species or system guinea pig
T3 construct: Cerebral cortex was dissected and used as a receptor source; from tissue; host or cells: guinea pig cerebral cortex membrane homogenate
T3 sequence (H0VZC5 1-426): T1 sequence (H0VZC5 1-426)
Protocol: 2. CCK Receptor Binding (Brain)
CCK-33 was radiolabeled and the binding was performed according to the description for the pancreas method with modifications according to Saito et al., J. Neurochem. 37: 483-490, 1981.
Male Hartley guinea pigs (300-500 g) were sacrificed by decapitation and the brains were removed and placed in ice-cold 50 mM, Tris HCI plus 7.58 g/l Trizma-7.4 (pH 7.4 at 25°C). Cerebral cortex was dissected and used as a receptor source. Each gram of fresh guinea pig brain tissue was homogenized in 10 ml of Tris/Trizma buffer with a Brinkman polytron PT-10. The homogenates were centrifuged at 42,000 g for 15 minutes. Pellets were resuspended in Tris Buffer, centrifuged as above and resuspended in 200 volumes of binding assay buffer (10 mM N-2-hydroxyethyl-piperazine-N'-2-ethane sulfonic acid (HEPES), 5 mM MgCl2, 0.25 mg/ml bacitracin, 1 mM ethylene glycol-bis-(β-aminoethylether-N,N'-tetraacetic acid) (EGTA), and 0.4% bovine serum albumin (BSA)). […] All assays were run in duplicate or triplicate. The reaction mixtures were incubated at 25°C for 2 hours and centrifuged in a Beckman Microfuge (4 minutes) immediately after adding 1 ml of ice-cold incubation buffer. The supernatant was aspirated and discarded, pellets were counted with a Beckman gamma 5000.

[3] = guinea pig gastric mucosal glands, 125I-gastrin, 25°C 30 minutes, read-out: IC50(µM) ^125I-Gastrin Gastric Glands
[4] = guinea pig cerebral cortex membranes, 125I-CCK-33, 25°C 2 hours, read-out: IC50(µM) ^125I-CCK Brain
[5] = rat pancreas membranes, 125I-CCK-33, 37°C 30 minutes, read-out: IC50(µM) ^125I-CCK Pancreas

| Compound | IC50 [1] | IC50 (CCK receptor (pancreas)) | IC50 [2] | IC50 [1, 3] | IC50 [2, 4] | IC50 (CCK receptor (pancreas); [5]) |
| --- | --- | --- | --- | --- | --- | --- |
| CN1C(=O)C(NC(=O)Nc2cccc(C(=O)O)c2)N=C(c2ccccc2)c2ccccc21 (racemic) [Example 9, (RS)-3-((((2,3-Dihydro-1-methyl-2-oxo-5-phenyl-1 H-1,4-benzodiazepin-3-yl)amino)carbonyl)amino)benzoic acid] | 0.009 µM | 0.049 µM | 0.0039 µM | – | – | – |
| O=C(NC1N=C(c2ccccc2)c2ccccc2N(CCO)C1=O)c1cc2ccccc2[nH]1 (racemic) [Example 12, (RS)-N-(2,3-Dihydro-1-(2-hydroxyethyl)-2-oxo-5-phenyl-1 H-1,4-benzodiazepin-3-yl)-1 H-indole-2-carboxamide] | – | 0.0024 µM | – | 0.24 µM | 0.16 µM | – |
| CN1C(=O)C(NC(=O)Nc2cc3c(cn2)[nH]c2ccccc23)N=C(c2ccccc2)c2ccccc21 (racemic) [Example 13, (RS)-N-(2,3-Dihydro-1-methyl-2-oxo-5-phenyl-1H-1,4-benzodiazepin-3-yl)-N'-9H-pyrido(3,4-b)indol-3-yl-urea] | – | 0.014 µM | 0.071 µM | 6.4 µM | – | – |
| CN1C(=O)C(NC(=O)Nc2ccc(N)nc2)N=C(c2ccccc2)c2ccccc21 (racemic) [Example 14, (RS)-N-(6-Amino-3-pyridyl)-N'-(2,3-dihydro-l-methyl-2-oxo-5-phenyl-1H-1,4-benzodiazepin-3-yl)-urea] | 0.4 µM | – | 0.011 µM | – | – | 2.7 µM |
| Cc1cccc(NC(=O)N[C@@H]2N=C(c3ccccc3)c3ccccc3N(C)C2=O)c1 [Example 5, (R)-N-(2,3-Dihydro-1-methyl-2-oxo-5-phenyl-1 H-1,4-benzodiazepin-3-yl)-N'-(3-methylphenyl)-urea] | 0.0011 µM | – | 0.002 µM | – | – | – |
| CN1C(=O)[C@@H](NC(=O)c2cc3ccccc3n2CC(=O)O)N=C(c2ccccc2)c2ccccc21 [Example 6, 3(S)-3-(2-(N-carboxymethylindole)carbonylamino)-1,3-dihydro-1-methyl-5-phenyl-2H-1,4-benzodiazepin-2-one] | – | 0.00013 µM | – | 0.07 µM | 0.129 µM | – |
| CN1C(=O)[C@@H](NC(=O)c2cc3ccccc3n2CCCC(=O)O)N=C(c2ccccc2)c2ccccc21 [Example 7, (S)-4-[-2-(((2,3-Dihydro-1-methyl-2-oxo-5-phenyl-1H-1,4-benzodiazepin-3-yl)amino)carbonyl)-1H-indolyl-1]-bu tanoic acid] | – | 0.0001 µM | – | 0.24 µM | 0.23 µM | – |
| CN1C(=O)[C@H](NC(=O)Nc2cccc(C(=O)O)c2)N=C(c2ccccc2)c2ccccc21 [Example 10, (R)-3-((((2,3-Dihydro-l-methyl-2-oxo-5-phenyl-1H-1,4-benzodiazepin-3-yl)amino)carbonyl)amino)benzoic a cid] | 0.009 µM | – | 0.0039 µM | – | – | 0.049 µM |
| CN1C(=O)C(NC(=O)c2cc3cc(OCC(=O)O)ccc3[nH]2)N=C(c2ccccc2)c2ccccc21 (stereo not shown) [Example 16, 1,3-Dihydro-3-(5-carboxymethyloxyindole-2-carbonylamino)-1-methyl-5-phenyl-2H-1,4-benzodiazepin 2-one] | – | 0.023 µM | – | – | 0.16 µM | – |
| Cc1cccc(NC(=O)NC2N=C(c3ccccc3)c3ccccc3N(CCO)C2=O)c1 (stereo not shown) [Example 17, N-(2,3-Dihydro-1-(2-hydroxyethyl)-2-oxo-5-phenyl-1 H-1,4-benzodiazepin-3-yl)-N'-(3-methylphenyl)-urea] | 0.0038 µM | 0.069 µM | 0.012 µM | – | – | – |
| COc1cccc(NC(=O)NC2N=C(c3ccccc3)c3ccccc3N(CCN(C)C)C2=O)c1 (stereo not shown) [Example 18, N-(2,3-Dihydro-1-(2-dimethylaminoethyl)-2-oxo-5-phenyl-1H-1,4-benzodiazepin-3-yl) -N'-(3-methoxyphenyl)-urea] | 0.01 µM | 2.6 µM | 0.024 µM | – | – | – |
| CCOC(=O)c1cccc(NC(=O)N[C@@H]2N=C(c3ccccc3)c3ccccc3N(C)C2=O)c1 [Example 19, (R)-3-((((2,3-Dihydro-1-methyl-2-oxo-5-phenyl-1H-1,4-benzodiazepin-3-yl)amino)carbonyl)amino)benzoic acid ethyl ester] | – | 0.02 µM | – | 0.018 µM | 0.026 µM | – |
